Measurements as given in EP4154876B1, “CBX7 INHIBITOR FOR USE IN THE TREATMENT AND/OR PREVENTION OF A BLOOD VESSEL DISORDER” (Universität Potsdam, priority 2021, dated 2023).
pKd: −log10 of the molar value. Where a SMILES comes first, the peptide text is derived from it. [ ]: non-standard residue; d: D form. The star is where a group is joined. Benzoyl(4-tBu) = CC(C)(C)c1ccc(C(=O)*)cc1; Lys(Et2) = CCN(CC)CCCC[C@H](N)C(=O)O

Assays:
ccm2 mutants = assay: Pharmacological treatment of zebrafish ccm2 mutants (CCM disease model); type: in vivo; details: for posterior caudal vein plexus: ccm2 mutants after treatment with inhibitor, Fig. 4A right column; for heart phenotype (strongly enlarged and ballooning heart): ccm2 mutants treated with inhibitor, Fig. 4A left column
Experimental: In ccm2 mutants the heart is strongly enlarged and ballooning. In ccm2 mutants treated with MS37452 or MS351, this phenotype is suppressed and is reminiscent of wild type. Similarly, the posterior caudal vein plexus in ccm2 mutants is fenestrated after treatment with the inhibitors. Quantifications of these phenotype classes are in B). To elucidate whether a pharmacological suppression of Cbx7a has the same effect on the zebrafish CCM model, specific small compound inhibitors of CBX7 were tested (MS37452 and MS351). Both inhibitors block the binding of CBX7 to histone modifications on genomic DNA and suppress the epigenetic function of this protein within the Polycomb repressive complex (PRC1) (Fig. 3). Both inhibitors suppress the expression of the CCM phenotype in zebrafish disease models (Fig. 4). The effects of both inhibitors are reminiscent of the genetic knockout of cbx7a in ccm2 mutants. Heart phenotypes is shown in Fig. 4A left column while the region of the posterior caudal vein plexus in Fig. 4A right column. In ccm2 mutants the heart is strongly enlarged and ballooning. In ccm2 mutants treated with MS37452 or MS351, this phenotype is suppressed and is reminiscent of wild type. Similarly, the posterior caudal vein plexus in ccm2 mutants is fenestrated after treatment with the inhibitors. Quantifications of these phenotype classes are shown Fig. 4B. The y-axis represents the ratio of the amounts of embryos with suppressed ballooning heart and abnormal caudal vein plexus phenotype to the amounts of embryos with ballooning heart and abnormal caudal vein plexus phenotype.

[1] = system: ChDs from other CBX proteins including CBX1/3/5 (HP1β/γ/α) and CBX2/4/6/8; details: cited from earlier work
CBX7ChD = target: T1, CBX7ChD (Homo sapiens, UniProt O95931); details: estimated; determined by NMR titration; CBX7ChD alone; cited from earlier work
T1 sequence (O95931 11-69 limits assumed): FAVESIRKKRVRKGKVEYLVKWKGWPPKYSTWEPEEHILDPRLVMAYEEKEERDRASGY

chromodomains of CBX7 = target: T2, chromodomains of CBX7 (Homo sapiens, UniProt O95931); details: CBX7 chromodomain; cited from earlier work
T2 sequence (O95931 11-69 limits assumed): T1 sequence (O95931 11-69 limits assumed)

| Structure (SMILES) | posterior caudal vein plexus (ccm2 mutants) | heart phenotype (strongly enlarged and ballooning heart) (ccm2 mutants) | binding to ChDs from other CBX proteins [1] | pKd (CBX7ChD) | pKd (chromodomains of CBX7) |
| --- | --- | --- | --- | --- | --- |
| COc1cccc(C(=O)N2CCN(C(=O)COc3cccc(C)c3)CC2)c1OC [MS37452] | fenestrated | suppressed | – | – | – |
| Cc1ccccc1Cn1c(=N)n(CC(O)c2ccc(Cl)c(Cl)c2)c2ccccc21.Cl (stereo not shown) [MS351] | fenestrated | suppressed | does not bind | ~3.30 | – |
| CCN(CC)CCCC[C@H](NC(=O)[C@H](CC(C)C)NC(=O)[C@H](C)NC(=O)[C@H](Cc1ccccc1)NC(=O)c1ccc(C(C)(C)C)cc1)C(=O)N[C@@H](CO)C(=O)OC [UNC3866] ({Benzoyl(4-tBu)}-FAL[Lys(Et2)]S-OMe) | – | – | – | – | ~7.00 |
